Measurements: the supplement of paper PMC11208160

test: recombinant barcode read abundance after kanamycin selection (control-corrected) (log10(CPM+1)); higher = more efficient recombination; sequences stand for … in AGTGCAGAGAAAATCGGCCAGTTTTCTCTGCCTGCAGTCCGCATGCCGT…ATTTATGCAGCGGACTGCCTTTCTCCCAAAGTGATAAACCGGACAGTATCATGGACCGGTTTTCCCGGTAATCCGTATTTGCAAGGTTGGTTTCACT; site = the 11-nt target
In short: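 Oligos holding a promoter, target, barcode and the J23119-driven first 104 bases of the bridge RNA were Gibson-cloned into a vector that supplied the other 73 bp plus a T7-inducible recombinase. This library was co-electroporated with a donor plasmid into E. coli. Two replicates went on chloramphenicol/ampicillin LB agar (control) and two on chloramphenicol/ampicillin/kanamycin with 0.1 mM IPTG. Recombination efficiency is read from averaged, control-corrected barcode counts per million at recombinant junctions, reported as log10(CPM+1).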

“GGGCGGACTTGGGTTCTAACCTGTTGCGGCT [GGGCGGACTCC_LTGcore_CT_RTGcore_AG] (site GGGCGGACTCC) (LTG core: CT, RTG core: AG)” and “GCGCGACCTTGGGTTCTAACCTGTTGCTTCT [GCGCGACCTAA_LTGcore_CT_RTGcore_AG] (site GCGCGACCTAA) (LTG core: CT, RTG core: AG)” are within 0.2 log units of each other in “recombinant barcode read abundance (log10)” value: 0.292 for the first, 0.345 for the second.

Going from “AGTCTTAACTGGGTTCTAACCTGTTGCCAAG [AGTCTTACTTG_LTGcore_AC_RTGcore_CT] (site AGTCTTACTTG) (LTG core: AC, RTG core: CT)” to “GGACACCCTTGGGTTCTAACCTGTTGCCTAC [GGACACCCTAG_LTGcore_CT_RTGcore_GT] (site GGACACCCTAG) (LTG core: CT, RTG core: GT)”, the “recombinant barcode read abundance (log10)” value rises from 0.111 to 1.33.

“TGATACCGCTGGGTTCTAACCTGTTGCGTGC [TGATACCCTAC_LTGcore_GC_RTGcore_GC] (site TGATACCCTAC) (LTG core: GC, RTG core: GC)” and “TAAGAATTATGGGTTCTAACCTGTTGCCTAG [TAAGAATCTAG_LTGcore_TA_RTGcore_CT] (site TAAGAATCTAG) (LTG core: TA, RTG core: CT)” are within 0.2 log units of each other in “recombinant barcode read abundance (log10)” value: 0.107 for the first, 0 for the second.

Compared with “AGGAGGTCTTGGGTTCTAACCTGTTGCCTCA [AGGAGGTCTAG_LTGcore_CT_RTGcore_TG] (site AGGAGGTCTAG) (LTG core: CT, RTG core: TG)”, “AAACAGTTATGGGTTCTAACCTGTTGCCTTA [AAACAGTCTAG_LTGcore_TA_RTGcore_TA] (site AAACAGTCTAG) (LTG core: TA, RTG core: TA)” is lower in “recombinant barcode read abundance (log10)” value: 0.322 for the first, 0.0835 for the second.

Going from “GAGTCCACTTGGGTTCTAACCTGTTGCGTGC [GAGTCCACTAC_LTGcore_CT_RTGcore_GC] (site GAGTCCACTAC) (LTG core: CT, RTG core: GC)” to “GTCGCCCATTGGGTTCTAACCTGTTGCTAAG [GTCGCCCCTTA_LTGcore_AT_RTGcore_CT] (site GTCGCCCCTTA) (LTG core: AT, RTG core: CT)”, the “recombinant barcode read abundance (log10)” value rises from 0.0181 to 0.926.

Compared with “AGGAGGTCTTGGGTTCTAACCTGTTGCCTAG [AGGAGGTCTAG_LTGcore_CT_RTGcore_CT] (site AGGAGGTCTAG) (LTG core: CT, RTG core: CT)”, “GTCGCCCCCTGGGTTCTAACCTGTTGCTAGG [GTCGCCCCTTA_LTGcore_CC_RTGcore_CC] (site GTCGCCCCTTA) (LTG core: CC, RTG core: CC)” is lower in “recombinant barcode read abundance (log10)” value: 1.59 for the first, 0.416 for the second.

“GGTGCCCCTTGGGTTCTAACCTGTTGCCGTA [GGTGCCCCTCG_LTGcore_CT_RTGcore_TA] (site GGTGCCCCTCG) (LTG core: CT, RTG core: TA)” and “AGGCCTCCTTGGGTTCTAACCTGTTGCCTCA [AGGCCTCCTAG_LTGcore_CT_RTGcore_TG] (site AGGCCTCCTAG) (LTG core: CT, RTG core: TG)” are within 0.2 log units of each other in “recombinant barcode read abundance (log10)” value: 0.258 for the first, 0.154 for the second.

“GGGCGTGGGTGGGTTCTAACCTGTTGCCTCC [GGGCGTGCTAG_LTGcore_GG_RTGcore_GG] (site GGGCGTGCTAG) (LTG core: GG, RTG core: GG)” and “CGCGCCCTATGGGTTCTAACCTGTTGCGGTA [CGCGCCCCTCC_LTGcore_TA_RTGcore_TA] (site CGCGCCCCTCC) (LTG core: TA, RTG core: TA)” are within 0.2 log units of each other in “recombinant barcode read abundance (log10)” value: 0.116 for the first, 0.0456 for the second.

“CGGTCCCCTTGGGTTCTAACCTGTTGCCAGA [CGGTCCCCTTG_LTGcore_CT_RTGcore_TC] (site CGGTCCCCTTG) (LTG core: CT, RTG core: TC)” and “TCTACCCCTTGGGTTCTAACCTGTTGCTGGC [TCTACCCCTCA_LTGcore_CT_RTGcore_GC] (site TCTACCCCTCA) (LTG core: CT, RTG core: GC)” are within 0.2 log units of each other in “recombinant barcode read abundance (log10)” value: 0.0215 for the first, 0.129 for the second.

Going from “GAGTCCAGTTGGGTTCTAACCTGTTGCGTAC [GAGTCCACTAC_LTGcore_GT_RTGcore_GT] (site GAGTCCACTAC) (LTG core: GT, RTG core: GT)” to “GAGCCCACTTGGGTTCTAACCTGTTGCCTAC [GAGCCCACTAG_LTGcore_CT_RTGcore_GT] (site GAGCCCACTAG) (LTG core: CT, RTG core: GT)”, the “recombinant barcode read abundance (log10)” value rises from 0.0422 to 0.369.

“AGGCGGTCTTGGGTTCTAACCTGTTGCTTCA [AGGCGGTCTAA_LTGcore_CT_RTGcore_TG] (site AGGCGGTCTAA) (LTG core: CT, RTG core: TG)” and “CGAGCCCCTTGGGTTCTAACCTGTTGCTGCG [CGAGCCCCTCA_LTGcore_CT_RTGcore_CG] (site CGAGCCCCTCA) (LTG core: CT, RTG core: CG)” are within 0.2 log units of each other in “recombinant barcode read abundance (log10)” value: 0.171 for the first, 0.339 for the second.

“GGACACCAGTGGGTTCTAACCTGTTGCCTAG [GGACACCCTAG_LTGcore_AG_RTGcore_CT] (site GGACACCCTAG) (LTG core: AG, RTG core: CT)” and “AGGAGGTTCTGGGTTCTAACCTGTTGCCTGA [AGGAGGTCTAG_LTGcore_TC_RTGcore_TC] (site AGGAGGTCTAG) (LTG core: TC, RTG core: TC)” are within 0.2 log units of each other in “recombinant barcode read abundance (log10)” value: 0.143 for the first, 0.0288 for the second.

“GAGCCCAGTTGGGTTCTAACCTGTTGCCTAC [GAGCCCACTAG_LTGcore_GT_RTGcore_GT] (site GAGCCCACTAG) (LTG core: GT, RTG core: GT)” and “GAGTCCAGATGGGTTCTAACCTGTTGCGTTC [GAGTCCACTAC_LTGcore_GA_RTGcore_GA] (site GAGTCCACTAC) (LTG core: GA, RTG core: GA)” are within 0.2 log units of each other in “recombinant barcode read abundance (log10)” value: 0.0734 for the first, 0.157 for the second.

“ATGTCCCTTTGGGTTCTAACCTGTTGCTCAG [ATGTCCCCTGA_LTGcore_TT_RTGcore_CT] (site ATGTCCCCTGA) (LTG core: TT, RTG core: CT)” and “CATATTAGCTGGGTTCTAACCTGTTGCCTGC [CATATTACTAG_LTGcore_GC_RTGcore_GC] (site CATATTACTAG) (LTG core: GC, RTG core: GC)” are within 0.2 log units of each other in “recombinant barcode read abundance (log10)” value: 0.0884 for the first, 0 for the second.

“GGGAGCCCTTGGGTTCTAACCTGTTGCTGAA [GGGAGCCCTCA_LTGcore_CT_RTGcore_TT] (site GGGAGCCCTCA) (LTG core: CT, RTG core: TT)” and “AGGCGGTTATGGGTTCTAACCTGTTGCTTAG [AGGCGGTCTAA_LTGcore_TA_RTGcore_CT] (site AGGCGGTCTAA) (LTG core: TA, RTG core: CT)” are within 0.2 log units of each other in “recombinant barcode read abundance (log10)” value: 0.138 for the first, 0.168 for the second.

“GGACACCTCTGGGTTCTAACCTGTTGCCTAG [GGACACCCTAG_LTGcore_TC_RTGcore_CT] (site GGACACCCTAG) (LTG core: TC, RTG core: CT)” and “GGGAGCCGGTGGGTTCTAACCTGTTGCTGCC [GGGAGCCCTCA_LTGcore_GG_RTGcore_GG] (site GGGAGCCCTCA) (LTG core: GG, RTG core: GG)” are within 0.2 log units of each other in “recombinant barcode read abundance (log10)” value: 0.117 for the first, 0.0432 for the second.

“TCTACCCGTTGGGTTCTAACCTGTTGCTGAG [TCTACCCCTCA_LTGcore_GT_RTGcore_CT] (site TCTACCCCTCA) (LTG core: GT, RTG core: CT)” and “TGTATTCCCTGGGTTCTAACCTGTTGCCTGG [TGTATTCCTAG_LTGcore_CC_RTGcore_CC] (site TGTATTCCTAG) (LTG core: CC, RTG core: CC)” are within 0.2 log units of each other in “recombinant barcode read abundance (log10)” value: 0.149 for the first, 0.267 for the second.
